Data taken from patent US11160794B2, “Methods for treating congenital disorders of glycosylation” (Maggie's Pearl, LLC, priority 2018, dated 2021).

Legend:
[1] = test system: PMM2; assay: PMM2 enzymatic assay on lysates of compound-treated fibroblasts; type: cell-based, human; details: for PMM2 enzyme activity: above described cell models; for effect on PMM2 enzymatic activity: human fibroblasts GM20942 (F119L/R148H as printed), 10 and 15 μM, 24 and 48 hours
Experimental: Cells (WT and PMM2 (GM20942-R141H/F119L) compound heterozygous fibroblasts) were seeded at 45 cells/μL (48 hours) and 60 cells/μL (24 hours) in 96 well plates. Compounds were added while seeding cells. The cells were incubated with the tested compounds for 24 and 48 hours (2 different plates, at 10 and 15 μM). Cells were washed twice with phosphate buffer solution. Cell extracts were prepared by adding 10 μL homogenization buffer (20 mM Hepes, 25 mM KCl, 1 mM dithiothreitol, 10 μg/mL each leupeptin and antipain) into each well. The plate was frozen at −80° C. and thawed (this step was repeated two times). Contents of the well were then transferred to the next well, frozen, and thawed. The previous two steps were repeated again to obtain 3× protein. The plate was centrifuged at 4000 rpm for 10 min. 1 μL of sample was taken for Qubit protein quantification, and assay buffer was added into these wells. The plate was incubated at 37° C., and readings were taken every 30 mins.
PMM2 enzymatic activities were assayed spectrophotometrically at 340 nm by the reduction of NADP+ to NADPH in a reaction mixture incubated at 30° C. for 60 mins in a 96-well plate. Cell lysates were added to 200 μL volume in the following reaction: 50 mM HEPES, pH 7.1, 5 mM MgCl2, 0.5 mM NADP+, 10 μg/mL yeast glucose-6-phosphate dehydrogenase, 20 μM glucose 1,6-bisphosphate, 200 μM mannose 1-phosphate, 10 μg/mL phosphoglucose isomerase, and […]. Glucose 1,6-bisphosphate was used as an activator of PMM2 activity. NADPH formation was calculated from absorbance at 340 nm using the Beer's Law (absorbance=εLc).
A PMM2 enzymatic assay was performed to determine whether the expression level of the variants correlate with the enzymatic activity in the cell. To do this, phosphomannose mutase (PMM) activity was assayed by measuring the reduction of NADP+ to NADPH spectrophotometrically at 340 nm with a plate reader according to methods known in the art. This is achieved by a series of four reactions shown in Scheme 1.
Mannose-1-phosphate and NADP are provided as substrates for the reactions along with phosphomannose isomerase, phosphoglucose isomerase, glucose-6-phosphoate dehydrogenase, and PMM2 from the protein lysate. Additionally, glucose 1,6-bisphosphate is used as an activator of PMM2 activity.
To determine whether these compounds rescue growth by increasing PMM2 enzymatic activity, human fibroblast cells (GM20942) containing the F119L/R148H heterozygous mutations and wild type fibroblast cells were treated with each compound. The cell lysates were subjected to the PMM2 enzymatic reaction.

[2] = test system: SEC53 variant (pmm2 mutant) yeast; assay: Yeast growth rescue of SEC53 variant strains (validation of drug screen hits); type: cell-based; details: for growth rescue/improvement: maximum dose/effect
Experimental: All strains used herein are in S288c background. Strains were grown in Synthetic Complete (“SC”) or SC drop out media (Sunrise)+2% dextrose at 30° C. unless otherwise noted. Standard genetic procedures of transformation and tetrad analysis were followed to construct strains. SEC53 rescue plasmid (pPL1) was generated by cloning the SEC53 promoter, open reading frame, and terminator sequences into the episomal pRS316 containing the URA3 selectable marker. SEC53 variants were generated by cloning the relevant promoter, GFP or SEC53 gene, and CYC1 terminator sequences into an integrating plasmid containing the LEU2 selectable marker and integrated at the SwaI restriction site into the HO locus. For PMM2 variants, the SEC53 ORF was replaced with a codon-optimized PMM2. Plasmids were generated by Next Interactions or GenScript. Strains were generated by Next Interactions or well-known techniques.
Cells from plates were resuspended in SC media to OD600=1.0, then serial diluted into 50 μL SC+FOA media in 384-well plates at 10^−1, 10^−2, and 10^−3. Plates were incubated at 30° C. and absorbance reading at […] were measured by a plate reader (Molecular Devices SpectraMax M3) at the indicated time points. Plates were vortexed briefly to resuspend cells prior to plate readings. 5-floroortic acid was purchased from US Biological and used at a concentration of 1 mg/L.
125 nL of compounds or DMSO were dispensed into 384-well plates using the Echo acoustic dispenser (LabCyte) to achieve a final concentration of 25 μM. 50 μL of 10^−2 dilution of an OD600=1.0 or 0.5 yeast cell suspensions were dispensed into the 384-well plates containing compounds or DMSO with a MultiFlo automated dispenser (Biotek). Plates were covered and incubated at 30° C. for 16-21 hours until OD600 reaches ˜0.8. Plates were vortexed briefly to resuspend cells prior to reading.
MicroSource Spectrum compounds were reordered from MicroSource Discovery Systems and resuspended in DMSO. 5-125 nL compounds or DMSO were dispensed into 384-well plates and 50 μL of yeast cell suspensions or media were dispensed by multichannel pipettes to achieve the desired concentration. Plates were covered and incubated at 30° C. for 16-23 hours until OD600 reaches ˜0.8. Plates were vortexed briefly to resuspend cells prior to plate readings.
pACT1-F126L, pSEC53-V238M, and pSEC53-F126L haploids and pACT1-F126L/pACT1-R148H, pSEC53-V238M/pSEC53-R148H, and pSEC53-F126L/pSEC53-R148H heterozygous diploids were advanced to a high-throughput drug screen. Screening was done in a 2,560 compound MicroSource Spectrum library collection consisting of FDA approved drugs, bioactive tool compounds, and natural products. Each strain was screened in duplicate and in 384-well plates, with each plate containing 32 wells of the negative control (no drugs) and 24 wells of the positive controls (wild type cells). […] Additionally, there is good correlation between replicates (correlation >0.4 for all panels). With a Z-score cutoff of 2.0, we initially identified six compounds that may be promising and their ability to rescue growth is conserved between the haploid and diploid strains.
These initial hits were further studied for validation. […] At the maximum dose tested, alpha-cyano-4-hydroxycinnamic acid (Compound 1) rescues the F126L allele by 17.7% in haploid and 24.5% in diploid cells.

[3] = test system: Pmm-2 F119L homozygous animals; assay: Chemical stressor exposure of Pmm-2 mutant worms in liquid culture; type: in vivo, nematode (worms); details: increasing concentrations
Description: Because an underlying defect in glycosylation may be manifested when subjected to external chemical stressors, Pmm-2 F119L homozygous animals were subjected to Tunicamycin and Bortezomib drug exposures. Tunicamycin is an inhibitor of N-linked glycosylation and Bortezomib (Bzb) is an irreversible inhibitor of the proteasome. It was contemplated that either or both drugs would affect the Pmm-2 mutants differently compared to wild type (“WT”).

[4] = pACT1-F126L/R148H heterozygous diploid cells

Compound	PMM2 enzyme activity [1]	effect on PMM2 enzymatic activity [1]	growth rescue/improvement ([2]; pACT1-F126L haploid cells) [%]	growth rescue/improvement [2, 4] [%]	growth of Pmm-2 mutants compared to wild type under drug exposure [3]	further results
Epalrestat [reference compound]	increase PMM2 enzyme activity					rescue of yeast growth defect ([2]; above described cell models): rescued yeast growth defect
Cc1ccc(C(=O)Nc2ccc(S(=O)(=O)O)c3cc(S(=O)(=O)O)cc(S(=O)(=O)O)c23)cc1NC(=O)c1cccc(NC(=O)Nc2cccc(C(=O)Nc3cc(C(=O)Nc4ccc(S(=O)(=O)O)c5cc(S(=O)(=O)O)cc(S(=O)(=O)O)c45)ccc3C)c2)c1 [suramin hexasodium]		no discernible effect	6.7	22.6		growth improvement ([2]; pSEC53-F126L haploid cells): 24.5%; growth improvement ([2]; pSEC53-F126L/R148H heterozygous diploid cells): 47.4%; growth improvement ([2]; pSEC53-V238M haploid cells): 16.1%; growth improvement ([2]; pSEC53-V238M/R148H heterozygous diploid cells): 38.9%
CC(C)C[C@H](NC(=O)[C@H](Cc1ccccc1)NC(=O)c1cnccn1)B(O)O [Bzb, Bortezomib]					delayed growth	
CNc1ccccc1C(=O)N1CCc2c([nH]c3ccccc23)C1=O [rhetsinine, Rhetsinine]	increase PMM2 enzyme activity					
N#C/C(=C\c1ccc(O)cc1)C(=O)O [Compound 1, α-cyano-4-hydroxycinnamic acid]		rescues the enzymatic activity	17.7	24.5		rescue of growth of SEC53 alleles ([2]; haploid and heterozygous diploid cells, dose response): consistent and dose-dependent rescues
Tunicamycin					no major differences in growth	
